Source: patent US20240109877A1, “PYRIMIDINES FOR DEGRADING BRUTON'S TYROSINE KINASE” (AbbVie Inc., priority 2022, published 2024)

Experiments:
[1] = biological target: Human BTK enzyme, wild-type (Homo sapiens (Human), UniProt Q06187); test: BTK Screening: Btk kinase activity, electrophoretic mobility shift assay (MSA); type: biochemical; details: 0.5 nM BTK enzyme, 50 μM ATP, 15 minutes pre-incubation, 3 hours at 25° C.
Method: Btk kinase activity was measured in vitro using an electrophoretic mobility shift assay (MSA). The ability of Btk to phosphorylate a fluorescent peptide substrate (FAM-GEEPLYWSFPAKKK-NH2) was measured. The kinase reactions were assembled in a total volume of 25 μL per well in 384 well plates. The following was added to each well: compound buffer (or control); enzyme buffer; and substrate buffer, as further described below.
Specifically the following was added: (1) compound buffer or control: 5μL of 5× compound buffer [(5× compound buffer comprised of: 1× Master Buffer, X μM test compound in 5% dimethyl sulfoxide; (2× Master Buffer comprised of 200 mM HEPES, pH7.5, 0.2% BSA, and 0.02% Triton X-100)]; and (2) enzyme buffer: 10 μL of 2.5× enzyme buffer (1× Master Buffer, 12.5 mM MgCl2, 2.5 mM DTT, 25 μM sodium orthovanadate, 25 μM beta-glycerophosphate, and 1.25 nM BTK enzyme). Human BTK enzyme Nanosyn-293HEK, wild-type, available from Nanosyn, Santa Clara, CA). Enzyme and compound were pre-incubated for 15 minutes. Additionally, the following was added: (3) substrate buffer: 10 μL of 2.5× substrate buffer (1× Master Buffer, […], and 2.5 μM of the peptide substrate FAM). Each plate was incubated at 25° C. for 3 hours. The reaction was terminated by adding to each well: 45 μL of 1.55× stop buffer (1× Master Buffer and 31 mM EDTA). The final reaction mixture was as follows: 100 mM HEPES, pH7.5; 0.1% BSA; 0.01% Triton X-100; 1 mM DTT; 5 mM MgCl2; 10 μM sodium orthovanadate; 10 μM beta-glycerophosphate; 50 μM ATP; 1% dimethyl sulfoxide (from compound); 1μM fluorescent peptide substrate and 0.5 nM BTK- enzyme. The terminated reactions were analyzed using a 12 channel LABCHIP® 3000 microfluidic detection instrument (available from Caliper Life Sciences, Waltham, MA). […] As substrate and product peptides were separated, two peaks of fluorescence were observed. Change in the relative fluorescence intensity of the substrate and product peaks was the parameter measured, reflecting enzyme activity. In the presence of an active compound, the ratio between product and substrate was altered. The signal of the product decreased, while the signal of the substrate increased. Capillary electrophoregrams (RDA acquisition files) were analyzed using HTS Well Analyzer software (available from Caliper Life Sciences, Waltham, MA).
Activity in each sample was determined as the product to sum ratio (PSR): P/(S+P), where P was the peak height of the product peptide and S was the peak height of the substrate peptide. For each compound, enzyme activity was measured at various concentrations (12 concentrations of compound spaced by 3× dilution intervals). Negative control samples (0% inhibition in the absence of an active compound) and positive control samples (100% inhibition, in the presence of 20 mM EDTA) were assembled in replicates of four and were used to calculate % inhibition values for each active compound at each concentration. Percent inhibition (Pinh) was determined using following equation: Pinh=(PSR0%−PSRinh)/(PSR0%−PSR100%)*100, where PSRinh was the product sum ratio in the presence of inhibitor, PSR0% was the average product sum ratio in the absence of active compound and PSR100% was the average product sum ratio in 100%-inhibition control samples.
The IC50 values of active compounds were determined by 4 parameter sigmoidal dose response model fitting of the inhibition curves (Pinh versus inhibitor concentration) using XLfit® 4 software (IDBS, Boston, MA). The IC50 values are reported in Table 2 in the BTK IC50 (nM) column.

[2] = biological target: His-tagged Cereblon/DDB1 complex (Homo sapiens (Human), UniProt Q96SW2); test: Cereblon Binding Assay (AlphaLISA Human Cereblon Binding Kit, competition); details: 10 μM top dose, biotin-labeled ligand competition; read-out: CRBN IC50
Method: Cereblon binding was measured in vitro using an AlphaLISA® Human Cereblon Binding Kit (PerkinElmer, Waltham, MA) according to the manufacturer's protocol (“Alpha” refers to Amplified Luminescent Proximity Homogeneous Assay). In this assay, donor beads and acceptor beads come into proximity through ligand binding to CRBN protein. Excitation of the donor beads provokes the release of singlet oxygen that triggers a cascade of energy transfer reactions to the acceptor beads, resulting in a sharp peak in light emission at 615 nm.
Specifically, nickel chelate acceptor beads (PerkinElmer AL108M) were used to capture a 6XHIS-tagged CRBN protein, and streptavidin-coated donor beads (PerkinElmer 6760002) were used to capture 50 nM biotinylated ligand. Each well included the following: sample or control; HIS-tagged CRBN protein; biotinylated ligand; nickel chelate acceptor beads; and streptavidin donor beads.
Competition Assay: Test compounds in 100% dimethyl sulfoxide were plated onto white, low volume 384 well plates (PerkinElmer Proxiplate 384 plus # 6008289) using an Labcyte Echo acoustic dispenser, in an 11-point dose curve and 3-fold dilution scheme. […] Plates were incubated for 30 minutes at room temperature.
Detection: 10 μL detection reagents were added in low light conditions containing nickel chelate acceptor beads and streptavidin donor beads (Perkin Elmer 6760002), resulting in a final concentration 20 ng/ml. Plates were incubated 1 hour and read on a PerkinElmerTM Envision™ plate reader (680 nm excitation and […] settings). The IC50 of each compound was determined by calculating percent inhibition from no drug and no protein controls, and the Ki of each compound was calculated using the Cheng-Prusoff transformation. From the IC50 values were determined. The IC50 values are reported in Table 2 in the CRBN IC50 (nM) column.

SMILES	IC50 [1] [nM]	IC50 [2] [nM]
Cc1cc(-c2cc(Nc3ccc(N4CCN(CCc5ccc(N6CCC(=O)NC6=O)cc5)C[C@@H]4C)cn3)ncn2)ccc1[C@@H](C)NC(=O)c1nc(C(C)(C)C)no1 [Example 1, 3-tert-butyl-N-[(1R)-1-{4-[6-({5-[(2S)-4-{2-[4-(2,4-dioxo-1,3-diazinan-1-yl)phenyl]ethyl}-2-methylpiperazin-1-yl]pyridin-2-yl}amino)pyrimidin-4-yl]-2-methylphenyl}ethyl]-1,2,4-oxadiazole-5-carboxamide]	0.0977	1260
Cc1cc(-c2cc(Nc3ccc(N4CCN(CCc5ccc(N6CCC(=O)NC6=O)cc5)C[C@H]4C)cn3)ncn2)ccc1[C@@H](C)NC(=O)c1nc(C(C)(C)C)no1 [Example 2, 3-tert-butyl-N-[(1R)-1-{4-[6-({5-[(2R)-4-{2-[4-(2,4-dioxo-1,3-diazinan-1-yl)phenyl]ethyl}-2-methylpiperazin-1-yl]pyridin-2-yl}amino)pyrimidin-4-yl]-2-methylphenyl}ethyl]-1,2,4-oxadiazole-5-carboxamide]	0.128	749
Cc1cc(-c2cc(Nc3ccc(N4CCN(CCc5ccc(N6CCC(=O)NC6=O)cc5)CC4)cn3)ncn2)ccc1[C@@H](C)NC(=O)c1nc(C(C)(C)C)no1 [Example 3, 3-tert-butyl-N-{(1R)-1-[4-(6-{[5-(4-{2-[4-(2,4-dioxo-1,3-diazinan-1-yl)phenyl]ethyl}piperazin-1-yl)pyridin-2-yl]amino}pyrimidin-4-yl)-2-methylphenyl]ethyl}-1,2,4-oxadiazole-5-carboxamide]	0.0339	9570
Cc1cc(-c2cc(Nc3ccc(N4CCN(CCc5ccc(N6CCC(=O)NC6=O)c(F)c5)C[C@@H]4C)cn3)ncn2)ccc1[C@@H](C)NC(=O)c1nc(C(C)(C)C)no1 [Example 4, 3-tert-butyl-N-[(1R)-1-{4-[6-({5-[(2S)-4-{2-[4-(2,4-dioxo-1,3-diazinan-1-yl)-3-fluorophenyl]ethyl}-2-methylpiperazin-1-yl]pyridin-2-yl}amino)pyrimidin-4-yl]-2-methylphenyl}ethyl]-1,2,4-oxadiazole-5-carboxamide]	0.141	≥ 10000
Cc1cc(-c2cc(Nc3ccc(N4CCN(CCc5ccc(N6CCC(=O)NC6=O)c(F)c5)C[C@H]4C)cn3)ncn2)ccc1[C@@H](C)NC(=O)c1nc(C(C)(C)C)no1 [Example 5, 3-tert-butyl-N-[(1R)-1-{4-[6-({5-[(2R)-4-{2-[4-(2,4-dioxo-1,3-diazinan-1-yl)-3-fluorophenyl]ethyl}-2-methylpiperazin-1-yl]pyridin-2-yl}amino)pyrimidin-4-yl]-2-methylphenyl}ethyl]-1,2,4-oxadiazole-5-carboxamide]	0.113	648
CC[C@H]1CN(CCc2ccc(N3CCC(=O)NC3=O)cc2)CCN1c1ccc(Nc2cc(-c3ccc([C@@H](C)NC(=O)c4nc(C(C)(C)C)no4)c(C)c3)ncn2)nc1 [Example 6, 3-tert-butyl-N-[(1R)-1-{4-[6-({5-[(2S)-4-{2-[4-(2,4-dioxo-1,3-diazinan-1-yl)phenyl]ethyl}-2-ethylpiperazin-1-yl]pyridin-2-yl}amino)pyrimidin-4-yl]-2-methylphenyl}ethyl]-1,2,4-oxadiazole-5-carboxamide]	0.0403	378
CC[C@H]1CN(CCc2ccc(N3CCC(=O)NC3=O)c(F)c2)CCN1c1ccc(Nc2cc(-c3ccc([C@@H](C)NC(=O)c4nc(C(C)(C)C)no4)c(C)c3)ncn2)nc1 [Example 7, 3-tert-butyl-N-[(1R)-1-{4-[6-({5-[(2S)-4-{2-[4-(2,4-dioxo-1,3-diazinan-1-yl)-3-fluorophenyl]ethyl}-2-ethylpiperazin-1-yl]pyridin-2-yl}amino)pyrimidin-4-yl]-2-methylphenyl}ethyl]-1,2,4-oxadiazole-5-carboxamide]	0.0979	609
CC[C@@H]1CN(CCc2ccc(N3CCC(=O)NC3=O)cc2)CCN1c1ccc(Nc2cc(-c3ccc([C@@H](C)NC(=O)c4nc(C(C)(C)C)no4)c(C)c3)ncn2)nc1 [Example 8, 3-tert-butyl-N-[(1R)-1-{4-[6-({5-[(2R)-4-{2-[4-(2,4-dioxo-1,3-diazinan-1-yl)phenyl]ethyl}-2-ethylpiperazin-1-yl]pyridin-2-yl}amino)pyrimidin-4-yl]-2-methylphenyl}ethyl]-1,2,4-oxadiazole-5-carboxamide]	0.0804	3380
Cc1cc(-c2cc(Nc3ccc(N4CCN(CCc5ccc(N6CCC(=O)NC6=O)cc5)CC4(C)C)cn3)ncn2)ccc1[C@@H](C)NC(=O)c1nc(C(C)(C)C)no1 [Example 9, 3-tert-butyl-N-{(1R)-1-[4-(6-{[5-(4-{2-[4-(2,4-dioxo-1,3-diazinan-1-yl)phenyl]ethyl}-2,2-dimethylpiperazin-1-yl)pyridin-2-yl]amino}pyrimidin-4-yl)-2-methylphenyl]ethyl}-1,2,4-oxadiazole-5-carboxamide]	0.0988	658
Cc1cc(-c2cc(Nc3ccc(N4CCN(CCc5ccc(N6CCC(=O)NC6=O)cc5)CC4)cn3)ncn2)c(F)cc1[C@@H](C)NC(=O)c1nc(C(C)(C)C)no1 [Example 12, 3-tert-butyl-N-{(1R)-1-[4-(6-{[5-(4-{2-[4-(2,4-dioxo-1,3-diazinan-1-yl)phenyl]ethyl}piperazin-1-yl)pyridin-2-yl]amino}pyrimidin-4-yl)-5-fluoro-2-methylphenyl]ethyl}-1,2,4-oxadiazole-5-carboxamide]	0.0363	2010
Cc1cc(-c2cc(Nc3ccc(N4CCN(CCc5ccc(N6CCC(=O)NC6=O)cc5)C[C@@H]4C(C)C)cn3)ncn2)ccc1[C@@H](C)NC(=O)c1nc(C(C)(C)C)no1 [Example 13, 3-tert-butyl-N-[(1R)-1-{4-[6-({5-[(2S)-4-{2-[4-(2,4-dioxo-1,3-diazinan-1-yl)phenyl]ethyl}-2-(propan-2-yl)piperazin-1-yl]pyridin-2-yl}amino)pyrimidin-4-yl]-2-methylphenyl}ethyl]-1,2,4-oxadiazole-5-carboxamide]	0.14	≥ 10000
C[C@@H](NC(=O)c1nc(C(C)(C)C)no1)c1ccc(-c2cc(Nc3ccc(N4CCN(CCc5ccc(N6CCC(=O)NC6=O)cc5)C[C@@H]4C)cn3)ncn2)cc1Cl [Example 14, 3-tert-butyl-N-[(1R)-1-{2-chloro-4-[6-({5-[(2S)-4-{2-[4-(2,4-dioxo-1,3-diazinan-1-yl)phenyl]ethyl}-2-methylpiperazin-1-yl]pyridin-2-yl}amino)pyrimidin-4-yl]phenyl}ethyl]-1,2,4-oxadiazole-5-carboxamide]	0.053	2330
